Results taken from a melting point compilation (Tetko et al.; mined from patent text by program, amines drawn as free bases though some values may be those of a salt).

SMILES	melting point [°C]
CCOc1ccc(-c2nc(-c3ccc(SC(=O)N(C)C)c(C(=O)OC)c3)cs2)cc1OCC	108 to 109
Nc1ccnc(Cl)c1Br	146
N#CCCNC(=S)C1=CC(CF)(CF)Oc2cc(Cl)c(Cl)cc21	154 to 155
Cc1cn(-c2cc(C#N)c(N)c(C(F)(F)F)c2)c(C)n1	208 to 210
C[C@@H](O)[C@H]1CC[C@H]2[C@@H]3C=CC4=CC(=O)C=C[C@]4(C)[C@H]3CC[C@]12C	162 to 164
Nc1ccc2c(c1)CCc1cc(=O)[nH]nc1-2	290 to 292
COc1cccc(-c2nc3n(n2)CCc2cc(OC)c(OC)cc2-3)c1	132 to 133
CC(C)(C)c1cc(-c2nn(CCCCl)c3ncccc23)cc(C(C)(C)C)c1O	107 to 109
C=CCOc1ccc2c(C)cc(=O)oc2c1C	107 to 108
O=S1(=O)NC(C2CC2)Nc2ccc(S(=O)(=O)N3CCCCC3)cc21 (stereo not given)	228 to 231
CC(=O)OC1CCC2(C)C(CCC3=C4C(=O)CC(C(C)CCCC(C)(C)O)C4(C)CCC32)C1 (stereo not given)	151 to 152
CNNc1ncn(-c2ccccc2)c(=O)n1	219
Cc1cc([N+](=O)[O-])c(NCCO)c([N+](=O)[O-])c1	131
CCOC(=O)C1=C(C)NC(=O)N(C(=O)OCC)C1c1ccccc1C(F)(F)F (stereo not given)	161 to 163
CCOC(=O)COc1ccc2c(c1)C(=O)CC1(CCCCC1)O2	72 to 73
CCNc1ncc(S(=O)(=O)NCC)cc1[N+](=O)[O-]	153 to 155
CN1C(=O)C(c2cn(C)c3ccccc23)=C(c2cn(C)c3ccccc23)C1=O	> 290
COC(=O)NC1=NC(c2ccc3ccccc3c2)CN1 (stereo not given)	227 to 228
CC(=O)N(C)Cc1cc2c(-c3ccccc3)c(CC(=O)Nc3ccc(Cl)cc3C(F)(F)F)c(=O)oc2cc1Cl	199 to 201
Cc1ccc(F)cc1C1CC(=O)CC(=O)C1	175 to 176
CC(=O)c1cccc(SCCCc2cn(S(=O)(=O)N(C)C)cn2)c1	122 to 124
COc1cccc2c1OC(C(=O)O)CO2 (stereo not given)	131 to 132
O=C(c1ccccc1)N1CCN(c2ccccc2)CCN1C(=O)c1ccccc1	190 to 192
CC1CC(=O)NN=C1c1ccc2c(c1)SCC(=O)N2C (stereo not given)	193 to 194
CCc1nn(C2CCCC2)c2cc(C(=O)O)ccc12	153 to 155

SMILES	melting point [°C]
O=C(CCC(=O)N1CCC(c2ccc(Cl)cc2)CC1)c1ccc2c(c1)CCN(C(=O)c1ccccc1)CC2	158 to 160
O=S1CCN(CC2CN=C(c3cc4cccc(NS(=O)(=O)c5ccccn5)c4[nH]3)S2)CC1 (stereo not given)	270
CCCCC(CO)Nc1ccc([N+](=O)[O-])cc1C(=O)NCc1ccc2c(c1)OCO2 (stereo not given)	112 to 115
CN1CCC(C2c3ccccc3CCc3cccnc32)CC1 (stereo not given)	111 to 114
CCOC(=O)C1=C(C)NC(CSCC2CO2)=C(C(=O)OCC)C1c1cccc([N+](=O)[O-])c1 (stereo not given)	107 to 109
Cc1nnsc1C(=O)Nc1ccc(-n2nc(C3CC3)cc2C2CC2)c(F)c1	148 to 152
CN1CCC(=C2c3ccc(Cl)cc3CCc3cccnc32)CC1	116 to 119
O=C(c1ccc2nonc2c1)N(CC(F)(F)F)C1CCOCC1	134 to 135
COc1ccc(-c2cc(CO)c(=O)n(Cc3ccc(F)cc3)n2)cc1F	127 to 130
CN1Cc2c(-c3ncc(CN4CCCCC4)o3)ncn2-c2ccc(F)cc2C1=O	191 to 193
O=C(c1ccc(Cl)cn1)c1ccc(Cl)cn1	164 to 167
CC(C)c1cc(C(C)C)c(CC(=O)NS(=O)(=O)Oc2c(C(C)C)cc(NS(=O)(=O)c3cccc4c(N(C)C)cccc34)cc2C(C)C)c(C(C)C)c1	103 to 105
OC[C@H]1C[C@@H](n2cnc3c(N[C@H]4CCN(c5ccc(C(F)(F)F)cc5)C4)ncnc32)[C@H](O)[C@@H]1O	111 to 114
CC(=O)N1CCS(=O)c2cccc(Cl)c2C1 (stereo not given)	119 to 121
COc1ccc2c(c1)c(CC(=O)OCC(=O)O)c(C)n2C(=O)c1ccccc1F	172 to 173
CCOC(=O)c1c(-c2ccccc2)nc2c(C(F)(F)F)cccc2c1O	114
CNC(=O)c1ccc(Cl)nc1	150 to 154
Cc1cc(Oc2cc(C(F)(F)F)nn2C)nc(Cl)n1	65
Cc1c(-c2ccccc2)oc2c(C(=O)NCCCl)cccc2c1=O	181 to 182
c1cnc(NCCN2CCC(=C3c4ccccc4CCn4ncnc43)CC2)nc1	162
O=C(O)c1ccccc1-c1n[nH]c(-c2cccc(C(F)(F)F)c2)n1	200
CC(=O)C(C)N1C(=O)N(c2ccc(N3CCN(c4ccc(O)cc4)CC3)cc2)C(=O)C1(C)C (stereo not given)	226
O=c1c2cccc3c2n(c(=O)n1CC(O)CO)-c1cc(C(F)(F)F)ccc1S3=O (stereo not given)	224 to 225
CCOC(=O)Cc1cn2cc(Br)nc(NC)c2n1	104
Cc1cccc(-c2sc(N)nc2-c2ccc3ncoc3c2)n1	188 to 190

SMILES	melting point [°C]
O=c1oc2ccc(Cl)cc2c(Cl)c1Cl	133 to 135
O=C(Nc1ccccc1)c1csc(Oc2cccc(Cl)c2)n1	94 to 95
CC1SC(=O)N(C(=O)C2CC3CCC2(C)C3(C)C)N=C1c1ccc2c(c1)CCCN2C(=O)c1ccc2c(c1)OCO2 (stereo not given)	216 to 217
Nc1cc(Cl)nc(C(=O)O)c1C=O	146 to 148
CCc1cccc2c3c([nH]c12)C(CC)(CC(=O)OC)OCC3NC(N)=O (stereo not given)	180
O=C(O)c1ccc(-c2ccc3cc(CCO)c(C45CC6CC(CC(C6)C4)C5)cc3c2)cc1	276 to 278
Cn1ncnc1COc1nc2c(cc1C(C)(C)C)nnn2-c1ccccc1F	115 to 117
CCc1sc2nc(=NS(=O)(=O)c3ccc(C)cc3)sn2c1-c1ccc2c(c1)CCCC2	151 to 152
CC(C)(C)C(=O)Nc1ccc(Cl)cc1F	70.5 to 71
O=c1c(Br)c(OCc2ccc(Cl)cc2)cnn1-c1ccc(Cl)cc1	168 to 175
COc1ccc(-n2nc(CCCO)c(Cl)c2-c2ccc(Cl)cc2)cc1	113 to 115
COC1CCC2C3CCC4=CC(=O)C(C)CC4(C)C3CCC12C (stereo not given)	130 to 145
Cc1cc(Cl)ccc1NC(=O)C(=O)N1CCC(Cc2ccccc2)CC1	105 to 108
CC(C)N=C(NC#N)Nc1cc(Cl)cc(Cl)c1	156 to 158
CC1SC(=O)NN=C1c1ccc2c(c1)C(=Cc1ccccc1[N+](=O)[O-])C(=O)N2 (stereo not given)	258
CCCCCCCCNC(=O)N1CCC(S(=O)(=O)c2ccc(CCNC[C@H](O)COc3ccc4c(c3)OCO4)cc2)CC1	84 to 86
CCCCOC(=O)C=Nc1cc(Cl)ccc1C(=O)O	130
CC(=O)OCc1ccc(-c2ccc(COC(C)=O)cc2)cc1	86 to 87
O=C1OC(=O)c2c3cc(Cl)ccc3cc3cccc1c23	325 to 327
CCCN(Cc1ccc(-c2ccccc2-c2nnn[nH]2)cc1)c1ncncc1C(=O)OCC	160 to 162
O=C(NCCOc1ccc(CC(Oc2cc(F)cc(F)c2)C(=O)O)cc1)c1ccc(-c2ccccn2)cc1 (stereo not given)	150 to 151
NS(=O)(=O)c1ccc(NC(=O)Nc2ccccc2)cc1	233 to 235
CCC(C)(C)C(=O)OCc1cccc(C)c1OCCOc1ccc([C@H](N)C(=O)O)cc1	170 to 172
O=C(O)CCCCCc1c(-c2cccnc2)[nH]c2ccc(O)cc12	185 to 187
CNc1cc(F)ccc1C(=O)CS(C)=O (stereo not given)	129 to 134

SMILES	melting point [°C]
CCOP(=O)(OCC)c1cc2cc(N)c(Cl)cc2[nH]c1=O	255 to 260
Oc1cc(N=Nc2ccccn2)ccc1-c1ccc(-c2ccc(N=Nc3ccccn3)cc2O)o1	164 to 165
OCc1csc(-n2cccc2)n1	111 to 113
O=C(O)c1ccc(COc2ccc3c(c2)CCC(CCN2CCCCC2)C3)cc1 (stereo not given)	105 to 108
COC(=O)C1=CCCn2c(=O)c3ccccc3c(=O)n21	156 to 157
CCCCCCCCCCCCCCNC(=O)Nc1sc(C(=O)O)c(C)c1C(=O)OC(C)(C)C	176 to 178
NS(=O)(=O)c1nc2ccc(OC(=O)CC3CCCC3)cc2s1	118 to 120
CCOC(CNC(=S)Nc1ccn(C)n1)OCC	152 to 155
COCn1cnc(N2CCc3ccccc3CC2)c(C#N)c1=O	119 to 124
Cc1c(C)c2c(c(C)c1O)SCO2	131 to 132
O=C(O)CN(CC(=O)O)C(=O)c1cc(OCCCCCCCCCCCCOc2ccccc2)ccc1OCc1ccccc1	70 to 75
CC(C)n1nc(-c2cnc(N)nc2-c2ccc(Cl)c(Cl)c2)ccc1=O	176
CNS(=O)(=O)c1ccc2c3c(cc([N+](=O)[O-])c2c1)N(C(=O)c1cc2cc(OCCN(C)C)ccc2[nH]1)CC3CCl (stereo not given)	> 350
Cc1nc(N2CCN(CC3CC3)C2=O)sc1C(=O)NCc1ncccn1	218 to 220
Cc1cccc(-n2c(-c3sc(Nc4ccccc4)nc3C)nc3ccccc3c2=O)c1	198 to 201
O=C(O)CCC(=O)N1CCN(c2cc3c(cc2F)c(=O)c(C(=O)O)c2sccn23)CC1	331 to 334
CC(C)c1nc2ccccn2c(=O)c1Br	204 to 207
C=CCc1cn2c(=O)c(C(=O)O)cnc2c2cc(OC)ccc12	207 to 210
Cc1cc(N=CN(C)C)nc(-c2ccc([N+](=O)[O-])o2)n1	176 to 178
COc1cc2c(cc1OC)C(c1cccc([N+](=O)[O-])c1)=NN=C(C)C2	196 to 198
CC(=O)NC[C@H]1CN(c2ccc3c(c2)OCC(C)N3)C(=O)O1 (stereo not given in full)	163 to 165
CCOC(=O)c1cc2c(C)ccc(O)c2[nH]1	211 to 212
CC(C)(C)N[C@@H]1Cc2cccc(O)c2C[C@H]1O (relative stereo)	97 to 102
Nc1n[nH]c2cccc(C(F)(F)F)c12	129 to 130
Cc1nc(C)c(-c2ccnc(Nc3ccc(N4CCSCC4)cc3)n2)s1	173 to 174
